# Measured values: PubChem BioAssay (NCI)
#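 The compound was tested at five concentrations on cells cultured in 96-well plates, with a 48-hour exposure period. TGI is the concentration that stops growth completely.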
# Experiments:
# Assay in all cases: NCI-60 cell line screen, 48 h
# SK-MEL-2 melanoma = test system: SK-MEL-2 melanoma
# HOP-92 NSCLC = test system: HOP-92 NSCLC
# SNB-78 CNS = test system: SNB-78 CNS
# SN12C renal = test system: SN12C renal
# HOP-18 NSCLC = test system: HOP-18 NSCLC
# OVCAR-3 ovarian = test system: OVCAR-3 ovarian
# UACC-62 melanoma = test system: UACC-62 melanoma
# UO-31 renal = test system: UO-31 renal
# DMS 273 small cell lung = test system: DMS 273 small cell lung
# HCC-2998 colon = test system: HCC-2998 colon
# CCRF-CEM leukemia = test system: CCRF-CEM leukemia
# CAKI-1 renal = test system: CAKI-1 renal
# A549 NSCLC = test system: A549 NSCLC
# MALME-3M melanoma = test system: MALME-3M melanoma
# NCI-H522 lung = test system: NCI-H522 lung
# NCI-H23 lung = test system: NCI-H23 lung
# COLO 205 colon = test system: COLO 205 colon
# HCT-116 colon = test system: HCT-116 colon
# HCT-15 colon = test system: HCT-15 colon
# ACHN renal = test system: ACHN renal
# UACC-257 melanoma = test system: UACC-257 melanoma
# MOLT-4 leukemia = test system: MOLT-4 leukemia
# SK-MEL-28 melanoma = test system: SK-MEL-28 melanoma
# A498 renal = test system: A498 renal
# M19-MEL melanoma = test system: M19-MEL melanoma
# NCI-H226 lung = test system: NCI-H226 lung
# LOX IMVI melanoma = test system: LOX IMVI melanoma
# EKVX NSCLC = test system: EKVX NSCLC
# SF-295 CNS = test system: SF-295 CNS
# HT29 colon = test system: HT29 colon
# 786-0 renal = test system: 786-0 renal
# RXF 393 renal = test system: RXF 393 renal
# OVCAR-5 ovarian = test system: OVCAR-5 ovarian
# SK-OV-3 ovarian = test system: SK-OV-3 ovarian
# OVCAR-4 ovarian = test system: OVCAR-4 ovarian
# SF-539 CNS = test system: SF-539 CNS
# LXFL 529 NSCLC = test system: LXFL 529 NSCLC
# DLD-1 colon = test system: DLD-1 colon
# HL-60(TB) leukemia = test system: HL-60(TB) leukemia
# TK-10 renal = test system: TK-10 renal
# OVCAR-8 ovarian = test system: OVCAR-8 ovarian
# KM20L2 colon = test system: KM20L2 colon
# SW-620 colon = test system: SW-620 colon
# NCI-H460 lung = test system: NCI-H460 lung
# SF-268 CNS = test system: SF-268 CNS
# IGROV1 ovarian = test system: IGROV1 ovarian
# SNB-19 CNS = test system: SNB-19 CNS
# SNB-75 CNS = test system: SNB-75 CNS
# KM12 colon = test system: KM12 colon
# M14 melanoma = test system: M14 melanoma
# SK-MEL-5 melanoma = test system: SK-MEL-5 melanoma
# U251 CNS = test system: U251 CNS
# RPMI-8226 leukemia = test system: RPMI-8226 leukemia
# DMS 114 small cell lung = test system: DMS 114 small cell lung
# XF 498 CNS = test system: XF 498 CNS
# K-562 leukemia = test system: K-562 leukemia
# HOP-62 NSCLC = test system: HOP-62 NSCLC
# SR leukemia = test system: SR leukemia
structure (smiles),measurement,setting,value
COc1cc2c3c(c1OC)-c1ccccc1C(C(OC(C)=O)c1ccccc1)C3N(C)CC2 (configuration not stated),TGI,SK-MEL-2 melanoma,83.7 µM
same,TGI,HOP-92 NSCLC,> 100 µM
same,TGI,SNB-78 CNS,> 100 µM
same,TGI,SN12C renal,> 100 µM
same,TGI,HOP-18 NSCLC,> 100 µM
same,TGI,OVCAR-3 ovarian,> 100 µM
same,TGI,UACC-62 melanoma,> 100 µM
same,TGI,UO-31 renal,> 100 µM
same,TGI,DMS 273 small cell lung,> 100 µM
same,TGI,HCC-2998 colon,> 100 µM
same,TGI,CCRF-CEM leukemia,> 100 µM
same,TGI,CAKI-1 renal,> 100 µM
same,TGI,A549 NSCLC,> 100 µM
same,TGI,MALME-3M melanoma,> 100 µM
same,TGI,NCI-H522 lung,> 100 µM
same,TGI,NCI-H23 lung,> 100 µM
same,TGI,COLO 205 colon,> 100 µM
same,TGI,HCT-116 colon,> 100 µM
same,TGI,HCT-15 colon,> 100 µM
same,TGI,ACHN renal,> 100 µM
same,TGI,UACC-257 melanoma,> 100 µM
same,TGI,MOLT-4 leukemia,> 100 µM
same,TGI,SK-MEL-28 melanoma,> 100 µM
same,TGI,A498 renal,> 100 µM
same,TGI,M19-MEL melanoma,> 100 µM
same,TGI,NCI-H226 lung,> 100 µM
same,TGI,LOX IMVI melanoma,> 100 µM
same,TGI,EKVX NSCLC,> 100 µM
same,TGI,SF-295 CNS,> 100 µM
same,TGI,HT29 colon,> 100 µM
same,TGI,786-0 renal,> 100 µM
same,TGI,RXF 393 renal,> 100 µM
same,TGI,OVCAR-5 ovarian,> 100 µM
same,TGI,SK-OV-3 ovarian,> 100 µM
same,TGI,OVCAR-4 ovarian,> 100 µM
same,TGI,SF-539 CNS,> 100 µM
same,TGI,LXFL 529 NSCLC,> 100 µM
same,TGI,DLD-1 colon,91 µM
same,TGI,HL-60(TB) leukemia,> 100 µM
same,TGI,TK-10 renal,> 100 µM
same,TGI,OVCAR-8 ovarian,> 100 µM
same,TGI,KM20L2 colon,> 100 µM
same,TGI,SW-620 colon,> 100 µM
same,TGI,NCI-H460 lung,> 100 µM
same,TGI,SF-268 CNS,> 100 µM
same,TGI,IGROV1 ovarian,> 100 µM
same,TGI,SNB-19 CNS,> 100 µM
same,TGI,SNB-75 CNS,> 100 µM
same,TGI,KM12 colon,> 100 µM
same,TGI,M14 melanoma,> 100 µM
same,TGI,SK-MEL-5 melanoma,49.6 µM
same,TGI,U251 CNS,> 100 µM
same,TGI,RPMI-8226 leukemia,80.7 µM
same,TGI,DMS 114 small cell lung,> 100 µM
Cc1ccc(S(=O)(=O)C(C#N)c2nc3ccccc3nc2-n2cccn2)cc1 (configuration not stated),TGI,SK-MEL-2 melanoma,> 100 µM
same,TGI,HOP-92 NSCLC,> 100 µM
same,TGI,SNB-78 CNS,> 100 µM
same,TGI,SN12C renal,> 100 µM
same,TGI,HOP-18 NSCLC,> 100 µM
same,TGI,OVCAR-3 ovarian,> 100 µM
same,TGI,UO-31 renal,> 100 µM
same,TGI,DMS 273 small cell lung,> 100 µM
same,TGI,HCC-2998 colon,> 100 µM
same,TGI,CCRF-CEM leukemia,> 100 µM
same,TGI,A549 NSCLC,> 100 µM
same,TGI,MALME-3M melanoma,> 100 µM
same,TGI,XF 498 CNS,> 100 µM
same,TGI,NCI-H23 lung,> 100 µM
same,TGI,COLO 205 colon,> 100 µM
same,TGI,HCT-116 colon,> 100 µM
same,TGI,HCT-15 colon,> 100 µM
same,TGI,ACHN renal,> 100 µM
same,TGI,UACC-257 melanoma,> 100 µM
same,TGI,MOLT-4 leukemia,> 100 µM
same,TGI,SK-MEL-28 melanoma,> 100 µM
same,TGI,M19-MEL melanoma,> 100 µM
same,TGI,NCI-H226 lung,> 100 µM
same,TGI,EKVX NSCLC,> 100 µM
same,TGI,SF-295 CNS,> 100 µM
same,TGI,HT29 colon,> 100 µM
same,TGI,786-0 renal,> 100 µM
same,TGI,OVCAR-5 ovarian,> 100 µM
same,TGI,SK-OV-3 ovarian,> 100 µM
same,TGI,OVCAR-4 ovarian,> 100 µM
same,TGI,SF-539 CNS,> 100 µM
same,TGI,LXFL 529 NSCLC,> 100 µM
same,TGI,DLD-1 colon,> 100 µM
same,TGI,HL-60(TB) leukemia,> 100 µM
same,TGI,TK-10 renal,> 100 µM
same,TGI,OVCAR-8 ovarian,> 100 µM
same,TGI,K-562 leukemia,> 100 µM
same,TGI,NCI-H460 lung,> 100 µM
same,TGI,SF-268 CNS,> 100 µM
same,TGI,IGROV1 ovarian,> 100 µM
same,TGI,SNB-19 CNS,> 100 µM
same,TGI,SNB-75 CNS,> 100 µM
same,TGI,KM12 colon,> 100 µM
same,TGI,M14 melanoma,> 100 µM
same,TGI,U251 CNS,> 100 µM
same,TGI,RPMI-8226 leukemia,> 100 µM
same,TGI,DMS 114 small cell lung,> 100 µM
C/C(=N\NS(=O)(=O)c1ccc(C)cc1)c1ccc[n+]([O-])n1,TGI,HOP-92 NSCLC,> 100 µM
same,TGI,SN12C renal,> 100 µM
same,TGI,HOP-18 NSCLC,> 100 µM
same,TGI,OVCAR-3 ovarian,> 100 µM
same,TGI,UACC-62 melanoma,> 100 µM
same,TGI,UO-31 renal,> 100 µM
same,TGI,DMS 273 small cell lung,> 100 µM
same,TGI,HCC-2998 colon,> 100 µM
same,TGI,CCRF-CEM leukemia,82.5 µM
same,TGI,CAKI-1 renal,85.3 µM
same,TGI,A549 NSCLC,> 100 µM
same,TGI,NCI-H522 lung,> 100 µM
same,TGI,XF 498 CNS,> 100 µM
same,TGI,NCI-H23 lung,> 100 µM
same,TGI,HCT-116 colon,> 100 µM
same,TGI,HOP-62 NSCLC,> 100 µM
same,TGI,HCT-15 colon,> 100 µM
same,TGI,ACHN renal,> 100 µM
same,TGI,UACC-257 melanoma,> 100 µM
same,TGI,MOLT-4 leukemia,> 100 µM
same,TGI,SK-MEL-28 melanoma,> 100 µM
same,TGI,A498 renal,> 100 µM
same,TGI,M19-MEL melanoma,> 100 µM
same,TGI,EKVX NSCLC,> 100 µM
same,TGI,SF-295 CNS,> 100 µM
same,TGI,HT29 colon,> 100 µM
same,TGI,786-0 renal,> 100 µM
same,TGI,OVCAR-5 ovarian,> 100 µM
same,TGI,SK-OV-3 ovarian,> 100 µM
same,TGI,OVCAR-4 ovarian,> 100 µM
same,TGI,SF-539 CNS,> 100 µM
same,TGI,LXFL 529 NSCLC,> 100 µM
same,TGI,DLD-1 colon,> 100 µM
same,TGI,HL-60(TB) leukemia,91 µM
same,TGI,OVCAR-8 ovarian,> 100 µM
same,TGI,K-562 leukemia,> 100 µM
same,TGI,KM20L2 colon,> 100 µM
same,TGI,SW-620 colon,> 100 µM
same,TGI,NCI-H460 lung,> 100 µM
same,TGI,SF-268 CNS,> 100 µM
same,TGI,IGROV1 ovarian,> 100 µM
same,TGI,SNB-19 CNS,> 100 µM
same,TGI,SNB-75 CNS,> 100 µM
same,TGI,KM12 colon,> 100 µM
same,TGI,M14 melanoma,> 100 µM
same,TGI,SK-MEL-5 melanoma,> 100 µM
same,TGI,U251 CNS,> 100 µM
same,TGI,RPMI-8226 leukemia,> 100 µM
same,TGI,SR leukemia,> 100 µM
same,TGI,DMS 114 small cell lung,> 100 µM
CC(C)(CN1CCCCC1)C(=O)CC(SCCS(=O)(=O)O)c1ccc(Br)cc1 (configuration not stated),TGI,SK-MEL-2 melanoma,4.37 µM
same,TGI,HOP-92 NSCLC,2.08 µM
same,TGI,SNB-78 CNS,77.7 µM
same,TGI,SN12C renal,2.97 µM
same,TGI,HOP-18 NSCLC,3.57 µM
same,TGI,UACC-62 melanoma,3.69 µM
same,TGI,UO-31 renal,2.99 µM
same,TGI,DMS 273 small cell lung,3.58 µM
same,TGI,HCC-2998 colon,4.55 µM
same,TGI,CAKI-1 renal,7.2 µM
same,TGI,A549 NSCLC,4.78 µM
same,TGI,MALME-3M melanoma,3.38 µM
same,TGI,NCI-H522 lung,2.9 µM
same,TGI,XF 498 CNS,2.07 µM
same,TGI,NCI-H23 lung,5.9 µM
same,TGI,COLO 205 colon,2.82 µM
same,TGI,HCT-116 colon,3.04 µM
same,TGI,HOP-62 NSCLC,18 µM
same,TGI,HCT-15 colon,6.91 µM
same,TGI,ACHN renal,3.1 µM
same,TGI,UACC-257 melanoma,11.5 µM
same,TGI,MOLT-4 leukemia,7.62 µM
same,TGI,SK-MEL-28 melanoma,8.7 µM
same,TGI,A498 renal,5.73 µM
same,TGI,M19-MEL melanoma,5.05 µM
same,TGI,NCI-H226 lung,8.75 µM
same,TGI,EKVX NSCLC,6.51 µM
same,TGI,SF-295 CNS,16.7 µM
same,TGI,HT29 colon,3.72 µM
same,TGI,786-0 renal,2.71 µM
same,TGI,RXF 393 renal,2.71 µM
same,TGI,OVCAR-5 ovarian,9.34 µM
same,TGI,OVCAR-4 ovarian,4.06 µM
same,TGI,SF-539 CNS,3.96 µM
same,TGI,LXFL 529 NSCLC,2.7 µM
same,TGI,DLD-1 colon,5.73 µM
same,TGI,TK-10 renal,7.97 µM
same,TGI,OVCAR-8 ovarian,5.96 µM
same,TGI,K-562 leukemia,8.63 µM
same,TGI,KM20L2 colon,3.53 µM
same,TGI,NCI-H460 lung,4.48 µM
same,TGI,SF-268 CNS,5.48 µM
same,TGI,IGROV1 ovarian,4.56 µM
same,TGI,SNB-19 CNS,5.44 µM
same,TGI,SNB-75 CNS,6.16 µM
same,TGI,KM12 colon,5.36 µM
same,TGI,M14 melanoma,3.54 µM
same,TGI,SK-MEL-5 melanoma,3.32 µM
same,TGI,U251 CNS,3.16 µM
same,TGI,RPMI-8226 leukemia,4.66 µM
same,TGI,DMS 114 small cell lung,3.46 µM
